Test results taken from PMC12406256, “Food Additives Inhibit Intestinal Drug Transporters but Have Limited Effect on In Vitro Drug Permeability” (Molecular Pharmaceutics, 2025).

Experiments:
OATP2B1 = molecular target: T1, OATP2B1 (Homo sapiens, UniProt O94956); assay: HEK293 uptake assay, OATP2B1 (5-carboxyfluorescein substrate); format: cell-based
T1 construct: expressed in transfected cells; host or cells: HEK293 cells (ATCC) transduced with recombinant OATP2B1 baculovirus
T1 sequence (O94956 1-709): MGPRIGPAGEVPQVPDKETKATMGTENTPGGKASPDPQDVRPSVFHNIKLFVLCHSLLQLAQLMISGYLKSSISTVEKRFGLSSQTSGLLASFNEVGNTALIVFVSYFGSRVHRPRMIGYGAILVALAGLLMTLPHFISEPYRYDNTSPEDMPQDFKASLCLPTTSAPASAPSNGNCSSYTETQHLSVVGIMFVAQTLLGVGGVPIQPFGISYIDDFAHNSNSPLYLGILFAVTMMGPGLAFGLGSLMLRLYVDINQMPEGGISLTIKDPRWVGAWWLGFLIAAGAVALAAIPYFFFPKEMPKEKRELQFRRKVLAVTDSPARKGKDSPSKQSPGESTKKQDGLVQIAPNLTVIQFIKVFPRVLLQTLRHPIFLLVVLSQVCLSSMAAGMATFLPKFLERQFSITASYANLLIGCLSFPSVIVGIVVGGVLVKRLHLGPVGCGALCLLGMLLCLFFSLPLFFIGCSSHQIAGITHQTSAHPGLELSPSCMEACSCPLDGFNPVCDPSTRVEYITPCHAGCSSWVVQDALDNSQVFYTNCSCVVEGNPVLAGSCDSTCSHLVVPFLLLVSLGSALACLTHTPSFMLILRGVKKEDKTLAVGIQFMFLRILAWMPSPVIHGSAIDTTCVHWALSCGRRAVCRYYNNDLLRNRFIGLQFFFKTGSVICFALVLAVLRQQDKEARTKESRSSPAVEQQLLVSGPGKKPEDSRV
Method: The inhibition of OATP2B1 was studied using a HEK293 cell-based uptake assay. HEK293 cells were cultured in DMEM supplemented with 10% FBS at 37 °C and 5% CO2 and seeded at 22,500 cells/well on 96-well plates coated with 0.1 mg/mL poly-D-lysine. After 24 h, the medium was replaced with a transduction mix (DMEM with 10% FBS, 5 mM sodium butyrate, and recombinant OATP2B1 or enhanced yellow fluorescent protein [eYFP, negative control] baculoviruses). The baculoviruses were produced as previously described. The uptake assay was performed after approximately 48 h. […] Test solutions also contained the substrate. Cells were washed with warm transport buffer and preincubated at 37 °C. Preincubation solutions were replaced with test solutions and incubated at 37 °C with shaking at 250 rpm. Transport was terminated by aspirating the test solution and washing the wells with an ice-cold transport buffer (150 μL) three times. Wells were left to dry, and cells were lysed with 0.1 M NaOH. […] Total protein concentration was measured from six random wells with a Pierce Coomassie (Bradford) Assay kit (Thermo Fisher Scientific) to ensure a similar protein concentration in the OATP2B1 and eYFP wells.

BCRP = molecular target: T2, BCRP (Homo sapiens, UniProt Q9UNQ0); settings: cited from earlier work
T2 sequence (Q9UNQ0 1-655): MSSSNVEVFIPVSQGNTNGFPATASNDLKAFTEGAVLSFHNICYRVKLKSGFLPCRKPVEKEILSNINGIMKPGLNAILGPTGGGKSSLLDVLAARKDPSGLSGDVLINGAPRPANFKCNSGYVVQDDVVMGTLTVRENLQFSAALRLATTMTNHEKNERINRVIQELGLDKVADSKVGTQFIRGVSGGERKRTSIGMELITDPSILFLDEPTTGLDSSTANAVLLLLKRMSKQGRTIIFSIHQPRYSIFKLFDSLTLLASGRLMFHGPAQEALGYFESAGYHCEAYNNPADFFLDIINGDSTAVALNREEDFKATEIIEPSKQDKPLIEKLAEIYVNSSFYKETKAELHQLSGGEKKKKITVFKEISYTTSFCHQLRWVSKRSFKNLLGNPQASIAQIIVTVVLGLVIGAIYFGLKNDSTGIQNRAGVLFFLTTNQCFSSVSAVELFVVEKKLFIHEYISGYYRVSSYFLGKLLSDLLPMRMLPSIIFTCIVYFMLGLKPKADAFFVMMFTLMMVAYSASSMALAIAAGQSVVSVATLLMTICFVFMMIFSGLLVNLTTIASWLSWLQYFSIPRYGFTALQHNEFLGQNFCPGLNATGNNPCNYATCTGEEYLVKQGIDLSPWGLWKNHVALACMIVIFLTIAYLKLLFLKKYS

MRP2 = molecular target: T3, MRP2 (Homo sapiens, UniProt Q92887); assay: Vesicular transport assay, MRP2 (CDCF substrate); format: biochemical; settings: food additive 50 μM; CDCF 5 μM; n = 1
T3 construct: made in house; host or cells: Spodoptera frugiperda Sf9 cells, crude membrane vesicles
T3 sequence (Q92887 whole entry): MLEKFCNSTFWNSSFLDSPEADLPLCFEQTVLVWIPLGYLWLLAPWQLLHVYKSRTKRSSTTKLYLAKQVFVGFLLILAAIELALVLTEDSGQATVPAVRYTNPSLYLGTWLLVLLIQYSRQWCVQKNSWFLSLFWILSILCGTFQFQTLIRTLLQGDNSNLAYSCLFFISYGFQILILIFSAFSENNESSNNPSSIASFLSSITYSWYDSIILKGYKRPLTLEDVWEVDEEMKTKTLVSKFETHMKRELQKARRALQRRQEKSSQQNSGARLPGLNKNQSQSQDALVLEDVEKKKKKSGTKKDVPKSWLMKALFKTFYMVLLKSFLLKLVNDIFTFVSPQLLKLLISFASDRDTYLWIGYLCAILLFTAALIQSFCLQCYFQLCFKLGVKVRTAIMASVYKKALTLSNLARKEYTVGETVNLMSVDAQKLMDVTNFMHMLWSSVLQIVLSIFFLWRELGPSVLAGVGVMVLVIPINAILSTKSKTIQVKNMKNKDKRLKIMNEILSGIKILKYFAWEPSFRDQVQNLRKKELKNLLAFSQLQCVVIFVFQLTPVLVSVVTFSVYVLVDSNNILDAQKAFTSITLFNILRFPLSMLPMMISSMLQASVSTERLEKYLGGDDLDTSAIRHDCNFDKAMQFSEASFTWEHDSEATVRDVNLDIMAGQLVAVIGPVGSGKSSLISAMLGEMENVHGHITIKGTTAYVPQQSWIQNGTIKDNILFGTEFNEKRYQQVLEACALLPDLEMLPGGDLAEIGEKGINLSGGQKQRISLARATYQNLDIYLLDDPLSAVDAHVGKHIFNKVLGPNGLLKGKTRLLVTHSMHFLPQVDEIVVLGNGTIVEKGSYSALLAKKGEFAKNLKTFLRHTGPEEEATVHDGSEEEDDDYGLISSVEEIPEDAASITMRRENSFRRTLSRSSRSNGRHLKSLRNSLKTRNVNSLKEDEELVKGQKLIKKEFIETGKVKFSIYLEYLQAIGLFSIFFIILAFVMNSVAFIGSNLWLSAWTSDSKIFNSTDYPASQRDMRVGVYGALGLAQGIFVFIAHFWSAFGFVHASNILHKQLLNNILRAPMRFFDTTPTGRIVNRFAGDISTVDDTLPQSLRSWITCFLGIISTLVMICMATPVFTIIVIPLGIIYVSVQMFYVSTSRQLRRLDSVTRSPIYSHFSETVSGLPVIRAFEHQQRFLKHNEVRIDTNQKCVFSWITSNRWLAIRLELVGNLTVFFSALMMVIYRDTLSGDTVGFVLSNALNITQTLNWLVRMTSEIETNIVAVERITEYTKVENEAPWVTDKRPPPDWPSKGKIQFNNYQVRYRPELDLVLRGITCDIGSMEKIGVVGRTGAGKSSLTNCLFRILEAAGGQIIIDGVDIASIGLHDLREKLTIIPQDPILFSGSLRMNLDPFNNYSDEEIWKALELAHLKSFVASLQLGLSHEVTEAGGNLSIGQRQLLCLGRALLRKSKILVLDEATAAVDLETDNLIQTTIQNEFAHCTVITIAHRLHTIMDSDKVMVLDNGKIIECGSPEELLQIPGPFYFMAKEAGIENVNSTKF

Caco-2 cells = system: Caco-2 cells; set-up: method as in not given; settings: micellar formulation, ref not given; cited from earlier work

Structure (SMILES): CC1=C(/C=C/C(C)=C/C=C/C(C)=C/C=C/C=C(C)/C=C/C=C(C)/C=C/C2=C(C)CCCC2(C)C)C(C)(C)CCC1 [beta-carotene]
- IC50 (OATP2B1; 5-carboxyfluorescein 2 μM, HEK293 cells, pH 6, n = 3, read-out: IC50 (95% CI), OATP2B1): 27.5 µM
- inhibition at 50 μM (OATP2B1; human, HEK293 cells transduced with recombinant OATP2B1 baculovirus, pH 6, probe 5-carboxyfluorescein 2 μM, food additive 50 μM, n = 1, read-out: inhibition of OATP2B1-mediated uptake): ≥ 50%
- BCRP inhibition potency (BCRP): weak inhibition potency
- inhibition of MRP2 substrate accumulation (MRP2): did not inhibit
- applied dose recovered in the basolateral chamber (Caco-2 cells): ≤ 35%
